The target of one assay is T1, TTK (Homo sapiens, UniProt P33981).
T1 sequence (P33981 1-857): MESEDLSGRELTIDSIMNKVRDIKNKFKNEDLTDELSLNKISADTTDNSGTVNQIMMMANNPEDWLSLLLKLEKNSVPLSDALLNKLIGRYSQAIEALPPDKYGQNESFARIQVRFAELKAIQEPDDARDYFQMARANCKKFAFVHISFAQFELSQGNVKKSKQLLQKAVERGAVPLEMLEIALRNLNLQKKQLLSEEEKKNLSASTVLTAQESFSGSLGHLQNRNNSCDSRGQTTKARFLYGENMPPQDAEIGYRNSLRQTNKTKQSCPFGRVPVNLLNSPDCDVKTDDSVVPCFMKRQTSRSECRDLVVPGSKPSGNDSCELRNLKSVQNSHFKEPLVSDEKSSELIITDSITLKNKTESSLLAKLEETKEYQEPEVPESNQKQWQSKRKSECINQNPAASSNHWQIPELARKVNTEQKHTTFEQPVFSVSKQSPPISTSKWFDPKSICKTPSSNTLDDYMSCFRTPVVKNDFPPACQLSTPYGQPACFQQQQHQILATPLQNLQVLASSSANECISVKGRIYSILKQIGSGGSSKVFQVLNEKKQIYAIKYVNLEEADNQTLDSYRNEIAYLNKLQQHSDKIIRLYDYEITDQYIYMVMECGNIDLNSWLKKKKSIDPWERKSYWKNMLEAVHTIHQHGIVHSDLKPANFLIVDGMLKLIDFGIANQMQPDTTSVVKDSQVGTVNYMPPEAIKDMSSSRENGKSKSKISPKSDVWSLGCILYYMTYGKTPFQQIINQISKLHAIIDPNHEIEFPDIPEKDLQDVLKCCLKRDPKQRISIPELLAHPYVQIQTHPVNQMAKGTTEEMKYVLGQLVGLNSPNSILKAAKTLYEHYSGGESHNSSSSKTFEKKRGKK
The assay is described as follows: TTK inhibition assay ([γ-33P]ATP transfer to phosphorylated MBP). As to conditions: read-out: inhibition of the protein kinase activity of TTK, IC50. Also noted: A. Recombinant TTK enzyme. The assay is classed as biochemical. Here is the method:
The compounds of the invention were also tested in the following assay to determine TTK-inhibitory activity. This assay measures transfer of radioactive phosphate from ATP to a protein substrate in the presence or absence of a test compound.
MATERIALS: • A. Recombinant TTK enzyme; • B. Phosphorylated myelin basic protein (MBP); • C. [γ-^33P]ATP: 1 mCi/100 μL; • D. Positive Control: a proprietary compound known to have […] in this assay.
Final concentrations of reaction mixture components (50 μl total volume): 50 mM Tris-HCl, pH 7.5; 0.01% Triton X-100; 10 mM MgCl2; 25 ng TTK (˜4 nM); 5 μM Phosphorylated MBP; 40 μM ATP (1 μCi/well, adjusted ATP specific activity according to strength of radiolabeled ATP).
Mixes were assembled in the wells of a 96-well polypropylene plate as follows: 1 μL 50× compound to be tested; 39 μL 1.282× Reaction Mix; 10 μL 5×ATP Mix.
The following reaction/assay steps were then performed: • 1. Mix thoroughly and incubate at room temperature for 45 minutes; • 2. Add 70 μL/well, except in background wells, of 3% phosphoric acid to terminate reaction, and transfer 100 μL to P81 filter plate; • 3. Wash with 1% phosphoric acid, then dry the P81 filter plate completely; • 4. Add 100 μL/well MicroSint-20 (PerkinElmer #6013621) and seal; • 5.

The subject of assay [1] is HCT116 colon cancer cell line. Description: HCT116 cytotoxicity assay (WST-1, 72 hours). The conditions noted are these: Homo sapiens, HCT-116, read-out: IC50 (concentration resulting in a 50% reduction in cell viability), HCT116 cells. Format: cell-based. Here is the method: The compounds of the invention were tested in the following cytotoxicity assay to detect anti-cancer activity. This assay determined viability of various cell lines, when treated with a test compound, by determining the metabolic activity of proliferating cells using the tetrazolium salt WST. While assays conducted with HCT116 colon cancer cell line cells were generally used to compare the relative efficacy of the compounds being tested, OVCAR8 and NCI/ADR-Res cell lines were also used according to the same procedure.
MATERIALS: • A. 10% FBS/L-glutamine/NEAA/HEPES/Na-Pyruvate/RPMI, phenol-free; • B. HCT116, OVCAR8 or NCI/ADR-Res cell lines (new vial thawed every 8-10 weeks); • C. Test compounds, typically 50 mM stocks diluted in DMSO; • D. Clear, flat, TC-surface bottomed 96-well microplates (Corning #3595); • E. WST-1: Dojindo, W201 (powder).
METHODS: • 1. […]
• b) Without removing culture medium, 0.4 μl of a 250× concentrated solution of test compound in growth media was added to HCT116, OVCAR8 or NCI/ADR-Res plates. Plates were returned to incubator and left to incubate for 72 hours. • c) 10 μL of prepared WST-1 was added to treated cells and allowed to incubate at 37° C. for 90 minutes. • d) Absorbances at 490 and 650 nm were read and viability of treated cells relative to DMSO control was determined.
On the technique in general: Formazan colour is commonly taken as a measure of viable cells.

The target in a further assay is FER (Homo sapiens, UniProt P16591). Description: In vitro binding assays.
Sequence of FER (P16591 whole entry, species assumed): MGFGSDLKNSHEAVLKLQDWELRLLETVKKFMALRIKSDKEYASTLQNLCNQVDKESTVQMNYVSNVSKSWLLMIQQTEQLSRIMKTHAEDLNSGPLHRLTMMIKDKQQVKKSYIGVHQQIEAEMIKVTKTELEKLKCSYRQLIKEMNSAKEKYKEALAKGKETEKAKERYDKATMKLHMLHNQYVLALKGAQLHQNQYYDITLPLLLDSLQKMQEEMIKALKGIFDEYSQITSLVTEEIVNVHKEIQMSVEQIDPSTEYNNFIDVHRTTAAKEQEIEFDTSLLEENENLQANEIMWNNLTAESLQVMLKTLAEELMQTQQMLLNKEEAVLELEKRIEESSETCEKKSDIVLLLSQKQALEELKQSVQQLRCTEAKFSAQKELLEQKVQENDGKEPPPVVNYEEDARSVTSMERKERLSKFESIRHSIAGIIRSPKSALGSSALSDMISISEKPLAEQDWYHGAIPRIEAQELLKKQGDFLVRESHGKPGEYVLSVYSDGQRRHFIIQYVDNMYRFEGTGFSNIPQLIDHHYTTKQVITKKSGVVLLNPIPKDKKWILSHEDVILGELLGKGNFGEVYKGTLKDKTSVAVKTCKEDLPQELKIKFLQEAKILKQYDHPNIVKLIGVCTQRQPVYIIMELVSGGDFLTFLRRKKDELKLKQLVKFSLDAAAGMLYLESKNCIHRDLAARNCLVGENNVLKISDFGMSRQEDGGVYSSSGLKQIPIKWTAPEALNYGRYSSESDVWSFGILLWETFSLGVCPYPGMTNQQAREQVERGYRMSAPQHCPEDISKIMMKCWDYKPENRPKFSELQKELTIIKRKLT
Another assay deals with JNK (Homo sapiens, UniProt P45983). Description: In vitro binding assays.
Sequence of JNK (P45983 whole entry): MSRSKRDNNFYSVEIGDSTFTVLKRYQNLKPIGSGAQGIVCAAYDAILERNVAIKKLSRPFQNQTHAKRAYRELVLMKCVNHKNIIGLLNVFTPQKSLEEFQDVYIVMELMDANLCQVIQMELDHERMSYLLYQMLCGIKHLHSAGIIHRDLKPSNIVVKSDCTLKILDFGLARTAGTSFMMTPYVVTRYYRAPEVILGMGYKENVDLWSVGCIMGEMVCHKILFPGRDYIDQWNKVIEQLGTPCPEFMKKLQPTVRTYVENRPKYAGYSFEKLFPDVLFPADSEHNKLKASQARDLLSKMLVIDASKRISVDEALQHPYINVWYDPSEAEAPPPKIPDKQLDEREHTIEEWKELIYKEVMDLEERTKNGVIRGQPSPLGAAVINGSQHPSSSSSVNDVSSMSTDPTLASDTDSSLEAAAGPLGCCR

With `NCCCOc1ccc(Nc2nc(NC3CCCCC3)c3nc[nH]c3n2)cc1` [N2-[4-(3-aminopropoxy)phenyl]-N-6-cyclohexyl-9H-purine-2,6-diamine], the IC50 was 8 nM at TTK, 1200 nM in assay [1], 15 nM on FER and 57 nM at JNK.
